Data as given in PMC8869358, “High-Throughput Chemical Screening and Structure-Based Models to Predict hERG Inhibition” (Biology, 2022).
Where a name gives a salt, the structure may show the parent alone.

molecular target: hERG (Homo sapiens, UniProt Q12809); experiment: cell-based; settings: (-LOG10(IC50), µM)
Sequence (Q12809 whole entry): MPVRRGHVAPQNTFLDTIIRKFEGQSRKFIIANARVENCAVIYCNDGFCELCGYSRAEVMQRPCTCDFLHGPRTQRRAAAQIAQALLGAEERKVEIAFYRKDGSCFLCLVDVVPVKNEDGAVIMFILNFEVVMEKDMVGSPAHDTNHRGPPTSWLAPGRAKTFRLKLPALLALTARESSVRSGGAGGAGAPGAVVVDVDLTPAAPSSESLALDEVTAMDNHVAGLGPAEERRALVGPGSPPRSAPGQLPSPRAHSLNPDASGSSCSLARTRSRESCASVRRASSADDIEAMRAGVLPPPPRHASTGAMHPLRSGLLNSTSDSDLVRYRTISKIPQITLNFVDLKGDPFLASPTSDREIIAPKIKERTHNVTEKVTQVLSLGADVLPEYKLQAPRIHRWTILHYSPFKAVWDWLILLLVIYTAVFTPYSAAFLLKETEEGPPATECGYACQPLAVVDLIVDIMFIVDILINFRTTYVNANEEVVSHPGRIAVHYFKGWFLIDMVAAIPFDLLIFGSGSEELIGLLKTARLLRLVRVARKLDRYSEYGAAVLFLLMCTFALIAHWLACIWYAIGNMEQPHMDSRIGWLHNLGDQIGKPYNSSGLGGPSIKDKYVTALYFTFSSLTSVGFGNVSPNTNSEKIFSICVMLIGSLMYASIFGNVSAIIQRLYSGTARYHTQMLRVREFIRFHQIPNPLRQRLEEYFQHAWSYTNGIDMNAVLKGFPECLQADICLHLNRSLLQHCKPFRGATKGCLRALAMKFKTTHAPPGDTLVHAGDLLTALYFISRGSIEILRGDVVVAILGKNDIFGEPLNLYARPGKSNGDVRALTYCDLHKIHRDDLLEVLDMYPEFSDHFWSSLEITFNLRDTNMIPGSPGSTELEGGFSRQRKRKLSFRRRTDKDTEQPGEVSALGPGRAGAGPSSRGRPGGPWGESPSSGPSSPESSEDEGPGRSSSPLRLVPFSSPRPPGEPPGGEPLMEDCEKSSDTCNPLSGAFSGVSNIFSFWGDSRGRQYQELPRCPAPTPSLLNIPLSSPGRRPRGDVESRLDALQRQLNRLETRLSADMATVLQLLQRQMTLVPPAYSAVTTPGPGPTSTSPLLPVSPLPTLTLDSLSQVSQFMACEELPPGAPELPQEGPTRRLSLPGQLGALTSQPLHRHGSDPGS

Going from `CCOC(=O)NCCOc1ccc(Oc2ccccc2)cc1` [Fenoxycarb] to `CCCCOC(=O)C(C)Oc1ccc(Oc2ccc(C(F)(F)F)cn2)cc1` (centres unmarked) [Fluazifop-butyl], the IC50 falls from 45.3 µM to 23.2 µM (2-fold). The second is the more potent here.

Going from `CN(C)c1ccc(C(=C2C=CC(=[N+](C)C)C=C2)c2ccc(N(C)C)cc2)cc1` [Gentian Violet] to `CN(C)c1ccc(C(=C2C=CC(=[N+](C)C)C=C2)c2ccccc2)cc1` [Malachite green], the IC50 rises from 2.79 µM to 4.25 µM (1.5-fold). The first is the more potent here.

Compared with `COC(=O)C(C)Oc1ccc(Oc2ccc(Cl)cc2Cl)cc1` (racemic) [(+-)-Diclofop-methyl], `COC(=O)c1cc(Oc2ccc(Cl)cc2Cl)ccc1[N+](=O)[O-]` [Bifenox] is 2-fold lower in IC50: 46.2 µM for the first, 23.6 µM for the second.

`CN1CCN(CCC(=O)N2c3ccccc3Sc3ccc(C(F)(F)F)cc32)CC1` [Ftormetazine] and `CN1CCN(CCCN2c3ccccc3Sc3ccc(S(=O)(=O)N(C)C)cc32)CC1` [Thioproperazine dimethanesulfonate] are the same in IC50: 4.96 µM for the first, 4.96 µM for the second.

First: CCCCCCCCCCCCOCCOCCOCCOCCOCCOCCOCCOCCOCCO [Polyoxyethylene (9) lauryl ether]
Second: CCCCCCCCCCCCCC[P+](CCCCCC)(CCCCCC)CCCCCC [Trihexyltetradecylphosphonium hexafluorophosphate]
The IC50 of the first is 45-fold higher: 21.3 µM for the first, 0.47 µM for the second. The second is the more potent here.

Compared with `COc1cc(C(C)=O)ccc1OCCCN1CCC(c2noc3cc(F)ccc23)CC1` [Iloperidone], `Cc1nc2ccccn2c(=O)c1CCN1CCC(C(=O)c2ccc(F)cc2)CC1` [Pirenperone] is 4.8-fold higher in IC50: 1.4 µM for the first, 6.74 µM for the second.

Going from `CCOC(=O)C1(c2ccccc2)CCN(CCC(C#N)(c2ccccc2)c2ccccc2)CC1` [Diphenoxylate hydrochloride] to `COC(=O)C1=C(C)NC(C)=C(C(=O)OCCCN2CCC(c3ccccc3)(c3ccccc3)CC2)C1c1cccc([N+](=O)[O-])c1` (racemic) [(+/-) -Niguldipine hydrochloride (1:x)], the IC50 rises from 0.624 µM to 1.25 µM (2-fold).

First: Cc1ccccc1OP(=O)(Oc1ccccc1C)Oc1ccccc1C [Tri-o-cresyl phosphate]
Second: CN(C)[C@@H](CCOc1cccc2ccccc12)c1ccccc1 [Dapoxetine]
The IC50 of the first is 2.8-fold higher: 21.1 µM for the first, 7.56 µM for the second.

First: CC[N+](CC)(CC)CCOC(=O)C(C1CCCC1)C1CCCC1 [Diponium bromide]
Second: CCC(=O)O[C@H]1CC[C@H]2[C@@H]3CCC4=CC(=O)CC[C@]4(C)[C@H]3CC[C@]12C [Testosterone propionate]
The IC50 of the first is 2.7-fold lower: 9.52 µM for the first, 25.8 µM for the second.

`Clc1ccccc1C(c1ccccc1)(c1ccccc1)n1ccnc1` [Clotrimazole] and `N#CC(CCc1ccc(Cl)cc1)(Cn1cncn1)c1ccccc1` (centres unmarked) [Fenbuconazole] are within 1.5-fold of each other in IC50: 25.5 µM for the first, 18.1 µM for the second.

Going from `COc1ccc(CN(CCN(C)C)c2ccccn2)cc1` [Pyrilamine] to `CN(C)CCOc1ccccc1Cc1ccccc1` [Phenyltoloxamine citrate], the IC50 falls from 27.4 µM to 8.49 µM (3.2-fold).

Compared with `N=C(N/N=C/c1ccc(Cl)cc1)N/N=C/c1ccc(Cl)cc1` [Robenidine], `CC(O)(c1ccc(Cl)cc1)c1ccc(Cl)cc1` [Chlorfenethol] is 27-fold higher in IC50: 1.69 µM for the first, 46.2 µM for the second. The first is the more potent here.

Compared with `NC(=O)C1(N2CCCCC2)CCN(CCCC(=O)c2ccc(F)cc2)CC1` [Pipamperone dihydrochloride], `CCN1CCN(c2cc(-c3ccc(F)cc3)c3c(n2)CCCCCC3)CC1` [Blonanserin] is 5-fold lower in IC50: 20.1 µM for the first, 3.99 µM for the second. The second is the more potent here.

`O=C(N=NC(=O)OCc1ccccc1)OCc1ccccc1` [Dibenzyl diazene-1,2-dicarboxylate] and `CCC(CN)=C(c1ccccc1)c1ccccc1` [Etifelmine hydrochloride] are within 1.5-fold of each other in IC50: 21.9 µM for the first, 20.5 µM for the second.

`Clc1ccc(C(c2ccc(Cl)cc2)C(Cl)Cl)cc1` [p,p'-DDD] and `Clc1ccccc1-c1ccccc1Cl` [2,2'-Dichlorobiphenyl] are within 1.5-fold of each other in IC50: 25.5 µM for the first, 17.6 µM for the second.

Going from `CCCCOCCOC(=O)c1ccccc1C(=O)OCCOCCCC` [Bis(2-butoxyethyl) phthalate] to `CCCCC(CC)C(=O)OCCOCCOCCOCCOC(=O)C(CC)CCCC` (centres unmarked) [Tetraethylene glycol di(2-ethylhexanoate)], the IC50 falls from 20.2 µM to 11 µM (1.8-fold).

`Cc1cc(C(C)(C)C)c(O)c(C(C)(C)C)c1` [Butylated hydroxytoluene] and `COc1ccc(C(=O)CC(=O)c2ccc(C(C)(C)C)cc2)cc1` [1-(4-tert-Butylphenyl)-3-(4-methoxyphenyl)propane-1,3-dione] are within 1.5-fold of each other in IC50: 20.7 µM for the first, 21.3 µM for the second.

`CCCCCCCCCc1ccc(O)cc1` [4-Nonylphenol, branched] and `CCCCCCCCCCCCc1ccccc1S(=O)(=O)O` [Sodium dodecylbenzenesulfonate] are within 1.5-fold of each other in IC50: 34.3 µM for the first, 24.5 µM for the second.

First: CN(c1nccc(=O)[nH]1)C1CCN(c2nc3ccccc3n2Cc2ccc(F)cc2)CC1 [Mizolastine]
Second: CCOCCn1c(C2CCN(CCc3ccc(C(C)(C)C(=O)O)cc3)CC2)nc2ccccc21 [Bilastine]
The IC50 of the first is 4.6-fold lower: 2.21 µM for the first, 10.1 µM for the second.

Compared with `CSc1ccc(Oc2ccc(S(N)(=O)=O)cc2CN(C)C)cc1C` [UK-416244], `CCOc1cc(Oc2ccc(C(F)(F)F)cc2Cl)ccc1[N+](=O)[O-]` [Oxyfluorfen] is 2.5-fold higher in IC50: 8.71 µM for the first, 21.9 µM for the second.

Going from `CCCCC(CC)COC(=O)c1ccc(O)cc1` (centres unmarked) [2-Ethylhexyl p-hydroxybenzoate] to `CCCC[n+]1ccc(C)cc1` [1-Butyl-4-methylpyridinium chloride], the IC50 rises from 24.5 µM to 43.4 µM (1.8-fold).

Going from `CCOC(=O)C(Cl)Cc1cc(-n2nc(C)n(C(F)F)c2=O)c(F)cc1Cl` (centres unmarked) [Carfentrazone-ethyl] to `CCCOc1sc(C(=O)N2CCC(c3cc(CN)ccc3F)CC2)c(C)c1Br` [AVE8923], the IC50 falls from 28.6 µM to 4.49 µM (6.4-fold).

Compared with `O=c1[nH]c2ccc([S+]([O-])CCN3CCC(Cc4ccc(F)cc4)CC3)cc2o1` (centres unmarked) [Besonprodil], `CC(=O)NC1(c2cccc(F)c2)CCN(CC[C@@]2(c3ccc(Cl)c(Cl)c3)CN(c3ccccc3)C(=O)CO2)CC1` [SAR102779] is 2.1-fold higher in IC50: 4.36 µM for the first, 9.08 µM for the second.

Compared with `CCCCCCCCn1sccc1=O` [Octhilinone], `CCCCCCCCCCCCn1cc[n+](C)c1` [1-Dodecyl-3-methylimidazolium chloride] is 9.6-fold lower in IC50: 27.6 µM for the first, 2.87 µM for the second. The second is the more potent here.

`CCc1nn(CCCN2CCN(c3cccc(Cl)c3)CC2)c(=O)n1CCOc1ccccc1` [Nefazodone hydrochloride] and `COc1ccccc1N1CCN(CC(O)COc2cccc3ccccc23)CC1` (centres unmarked) [Naftopidil] are within 1.5-fold of each other in IC50: 1.57 µM for the first, 1.69 µM for the second.

`O=C1CC2(CCCC2)CC(=O)N1CCNCC1COc2ccccc2O1` (centres unmarked) [Binospirone mesylate] and `CCN(CC)CC1CCCCN1CC(=O)N1c2ccccc2C(=O)Nc2cccnc21` (centres unmarked) [AF-DX 116] are within 1.5-fold of each other in IC50: 19 µM for the first, 20.5 µM for the second.

`CC(CN(C)C)CN1c2ccccc2CCc2ccccc21` (centres unmarked) [Trimipramine hydrogen maleate] and `CC(CN1c2ccccc2Sc2ccccc21)N(C)C` (centres unmarked) [Promethazine] are within 1.5-fold of each other in IC50: 14.5 µM for the first, 19.7 µM for the second.

Compared with `CCOP(=S)(OCC)OC(Cl)C(Cl)(Cl)Cl` (centres unmarked) [Chlorethoxyfos], `CCOP(=S)(OCC)Oc1ccc2c(C)c(Cl)c(=O)oc2c1` [Coumaphos] is 1.6-fold higher in IC50: 25.5 µM for the first, 40.4 µM for the second.

Going from `CC(C)CC(C)(c1ccc(O)cc1)c1ccc(O)cc1` [4,4'-(4-Methylpentane-2,2-diyl)diphenol] to `CC(CCc1ccccc1)NC(C)C(O)c1ccc(O)cc1` (centres unmarked) [Nylidrin], the IC50 falls from 28.6 µM to 5.56 µM (5.1-fold). The second is the more potent here.

Going from `C[Si](Cn1cncn1)(c1ccc(F)cc1)c1ccc(F)cc1` [Flusilazole] to `c1ccc2c(c1)Oc1ccccc1S2` [Phenoxathiin], the IC50 falls from 40.2 µM to 24.5 µM (1.6-fold).

`C#CCN(C)CCCOc1ccc(Cl)cc1Cl` [N-Methyl-N-propargyl-3-(2,4-dichlorophenoxy)propylamine hydrochloride] and `CCCN1C[C@H](CSC)C[C@@H]2c3cccc4[nH]cc(c34)C[C@H]21` [Pergolide methanesulfonate] are within 1.5-fold of each other in IC50: 8.82 µM for the first, 7.56 µM for the second.

Compared with `CCCCCCC(C)Nc1ccc(Nc2ccccc2)cc1` (centres unmarked) [N-(1-Methylheptyl)-N'-phenyl-1,4-benzenediamine], `CCOC(CN1CCN(CC(C)C(=O)c2ccccc2)CC1)c1ccccc1` (centres unmarked) [Eprazinone dihydrochloride] is 3.7-fold lower in IC50: 34.7 µM for the first, 9.28 µM for the second. The second is the more potent here.

`CCCCCCCCCCCCCCCC[N+](C)(C)C` [Hexadecyltrimethylammonium bromide] and `CCCCCCCCCCCCCC[N+](C)(C)C` [Tetradonium bromide] are within 1.5-fold of each other in IC50: 20.1 µM for the first, 18.3 µM for the second.

`CN1C2CCC(C)(C)C1CC(OC(=O)C(O)(c1cccs1)c1cccs1)C2` (centres unmarked) [Mazaticol] and `C#CCOS(=O)OC1CCCCC1Oc1ccc(C(C)(C)C)cc1` (centres unmarked) [Propargite] are within 1.5-fold of each other in IC50: 21.3 µM for the first, 20.7 µM for the second.

`CCOP(=S)(OCC)SCCSCC` [Disulfoton] and `C=C(Cl)CSC(=S)N(CC)CC` [Sulfallate] are within 1.5-fold of each other in IC50: 43.3 µM for the first, 51.5 µM for the second.

Going from `CCOC(=O)c1c(N)sc2c1CCN(Cc1ccccc1)C2` [Tinoridine] to `O=C(CN1CCN(Cc2ccc3c(c2)OCO3)CC1)N1c2ccccc2Sc2ccccc21` [Fenoverine], the IC50 falls from 21.3 µM to 3.51 µM (6.1-fold). The second is the more potent here.

`C=C(C)C(=O)OCC(CC)(COC(=O)C(=C)C)COC(=O)C(=C)C` [1,1,1-Trimethylolpropane trimethacrylate] and `CCC(COC(=O)CCS)(COC(=O)CCS)COC(=O)CCS` [2,2-Bis{[(3-sulfanylpropanoyl)oxy]methyl}butyl 3-sulfanylpropanoate] are within 1.5-fold of each other in IC50: 30.2 µM for the first, 38.9 µM for the second.

Compared with `CCCCCCCCCCCCN1CCOCC1` [4-Dodecylmorpholine], `CCOC(=O)c1ccc([C@H]2CC[C@H](NC[C@H](O)COc3ccc(O)c(NS(C)(=O)=O)c3)CC2)cc1` [SAR 150640] is 1.8-fold higher in IC50: 15.5 µM for the first, 28.5 µM for the second.

Compared with `N#Cc1c(-c2ccc(Cl)cc2)[nH]c(C(F)(F)F)c1Br` [Tralopyril], `CC(C)C(OC(=O)c1ccccc1)C(C)(C)COC(=O)c1ccccc1` (centres unmarked) [2,2,4-Trimethylpentane-1,3-diyl dibenzoate] is 2-fold higher in IC50: 11 µM for the first, 21.9 µM for the second. The first is the more potent here.

Compared with `C[C@@H]1CC[C@@]2(OC1)O[C@H]1[C@@H](O)[C@H]3[C@@H]4CC[C@H]5C[C@@H](O[C@@H]6O[C@H](CO)[C@H](O[C@@H]7O[C@H](CO)[C@@H](O)[C@H](O[C@@H]8OC[C@@H](O)[C@H](O)[C@H]8O)[C@H]7O[C@@H]7O[C@H](CO)[C@@H](O)[C@H](O[C@@H]8O[C@H](CO)[C@@H](O)[C@H](O)[C@H]8O)[C@H]7O)[C@H](O)[C@H]6O)[C@H](O)C[C@]5(C)[C@H]4CC[C@]3(C)[C@H]1[C@@H]2C` [Digitonin], `C[C@H]1C[C@H]2[C@@H]3CCC4=CC(=O)C=C[C@]4(C)[C@@]3(Cl)[C@@H](O)C[C@]2(C)[C@@]1(O)C(=O)CO` [Beclomethasone] is 2.7-fold higher in IC50: 8.9 µM for the first, 23.9 µM for the second.
